Converted amounts (≈) assume the structure as drawn. One block for each compound: values may come before it.
Key:
Assay in all cases: ≥ marks a high value that may be exact or a test limit, other limits are often not marked, values filed in µg/mL are converted to µM
Staphylococcus aureus = test system: Staphylococcus aureus
Pseudomonas aeruginosa = test system: Pseudomonas aeruginosa
Escherichia coli 55B5 = test system: Escherichia coli 55B5
Escherichia coli UB1005 = test system: Escherichia coli UB1005
Salmonella typhimurium = test system: Salmonella typhimurium
Serratia rubidaea X01 = test system: Serratia rubidaea X01
[1] = test system: Staphylococcus carnosus KHS
[2] = test system: Escherichia coli ATCC 25922
[3] = test system: Staphylococcus aureus ATCC 2592
[4] = test system: Bacillus licheniformis X39
[5] = test system: Psychrobacter faecalis X29
[6] = test system: Rhodococcus rhodochrous X15
[7] = test system: Pseudomonas aeruginosa 1.50
Bacillus cereus = test system: Bacillus cereus
[8] = test system: Acinetobacter calcoaceticus
Shigella dysenteriae = test system: Shigella dysenteriae
[9] = test system: Candida albicans ATCC 2002
Bacillus pumilus = test system: Bacillus pumilus
[10] = test system: Kocuria rhizophila DSM 348
[11] = test system: Bacillus subtilis ATCC 6633
[12] = test system: Escherichia coli DH5alpha
[13] = test system: Staphylococcus aureus DSM 1104
[14] = test system: Micrococcus luteus DSM 1790
[15] = test system: Staphylococcus aureus ATCC 25923
[16] = test system: Escherichia coli DSM 1103
Escherichia coli 23A = test system: Escherichia coli 23A
[17] = test system: Pseudomonas aeruginosa 3A
[18] = test system: Pseudomonas aeruginosa 7A
Staphylococcus aureus 6A = test system: Staphylococcus aureus 6A
Escherichia coli 27A = test system: Escherichia coli 27A
[19] = test system: Staphylococcus aureus 15A
Bacillus subtilis = test system: Bacillus subtilis
Candida glabrata 090902 = test system: Candida glabrata 090902
[20] = test system: Nocardia asteroides 201118
[21] = test system: Staphylococcus aureus ATCC 43300

MIC (Serratia rubidaea X01): ≥ 130 µM
MIC [1]: 2 µM (≈ 6.16 µg/mL)
MIC [2]: 32.5 µM (≈ 100 µg/mL)
MIC [3]: 2 µM (≈ 6.16 µg/mL)
MIC [4]: 8 µM (≈ 24.6 µg/mL)
MIC [5]: 0.5 µM (≈ 1.54 µg/mL)
MIC [6]: 0.5 µM (≈ 1.54 µg/mL)
MIC [7]: ≥ 65 µM
Compound: CSCC[C@H](NC(=O)CNC(=O)[C@H](C)NC(=O)[C@H](CCC(=O)O)NC(=O)[C@H](CCCCN)NC(=O)[C@H](C)NC(=O)[C@@H](NC(=O)CNC(=O)[C@H](CCCCN)NC(=O)[C@H](CC(C)C)NC(=O)[C@H](CC(C)C)NC(=O)[C@H](CC(=O)O)NC(=O)CNC(=O)[C@H](Cc1ccccc1)NC(=O)[C@H](C)NC(=O)CN)C(C)C)C(=O)N[C@@H](CCCCN)C(=O)N[C@@H](CC(C)C)C(=O)N[C@@H](CC(C)C)C(=O)N[C@@H](CC(N)=O)C(=O)N[C@@H](CCSC)C(=O)N[C@@H](C)C(=O)N[C@@H](CCC(N)=O)C(=O)N[C@H]1CSSC[C@@H](C(=O)O)NC(=O)[C@H](CCCCN)NC(=O)CNC(=O)[C@H](CO)NC(=O)[C@H](CC(C)C)NC(=O)[C@H](CCCCN)NC1=O [GAFGDLLKGVAKEAGMKLLNMAQCKLSGKC]

MIC (Bacillus cereus): 1.94 µM (≈ 7.5 µg/mL)
MIC [8]: 6.46 µM (≈ 25 µg/mL)
MIC [2]: 3.23 µM (≈ 12.5 µg/mL)
MIC (Shigella dysenteriae): 1.94 µM (≈ 7.5 µg/mL)
MIC [3]: 0.646 µM (≈ 2.5 µg/mL)
MIC [9]: 0.646 µM (≈ 2.5 µg/mL)
MIC (Pseudomonas aeruginosa): 12.9 µM (≈ 50 µg/mL)
MIC (Bacillus pumilus): 0.646 µM (≈ 2.5 µg/mL)
Compound: CC[C@H](C)[C@H](NC(=O)CN)C(=O)N[C@@H](Cc1ccccc1)C(=O)N[C@@H](C)C(=O)N[C@@H](CC(C)C)C(=O)N[C@H](C(=O)N[C@@H](CCCCN)C(=O)N[C@H](C(=O)N[C@@H](C)C(=O)N[C@@H](C)C(=O)N[C@@H](CCCCN)C(=O)N[C@@H](Cc1ccccc1)C(=O)N[C@H](C(=O)NCC(=O)N[C@@H](CCCCN)C(=O)N[C@@H](CC(N)=O)C(=O)N[C@@H](CC(C)C)C(=O)N[C@@H](CC(C)C)C(=O)N[C@@H](CCCCN)C(=O)N[C@@H](CCC(N)=O)C(=O)N[C@@H](C)C(=O)NCC(=O)N[C@@H](CCCCN)C(=O)N[C@@H](C)C(=O)NCC(=O)N[C@@H](CC(C)C)C(=O)N[C@@H](CCC(=O)O)C(=O)N[C@@H](Cc1cnc[nH]1)C(=O)N[C@@H](CC(C)C)C(=O)N[C@@H](C)C(=O)N[C@H]1CSSC[C@@H](C(=O)O)NC(=O)[C@H](CCC(N)=O)NC(=O)[C@H](CC(N)=O)NC(=O)[C@H](CC(N)=O)NC(=O)[C@H](C)NC(=O)[C@H](CCCCN)NC1=O)C(C)C)[C@@H](C)O)[C@@H](C)CC [GIFALIKTAAKFVGKNLLKQAGKAGLEHLACKANNQC]

MIC (Escherichia coli 23A): 10.3 µM (≈ 15 µg/mL)
MIC [17]: 10.3 µM (≈ 15 µg/mL)
MIC [18]: ≥ 82.3 µM
MIC (Staphylococcus aureus 6A): 1.3 µM (≈ 1.9 µg/mL)
MIC [2]: 10.3 µM (≈ 15 µg/mL)
MIC (Escherichia coli 27A): ≥ 41.2 µM
MIC [3]: 2.57 µM (≈ 3.75 µg/mL)
MIC [19]: 2.57 µM (≈ 3.75 µg/mL)
MIC [9]: 10.3 µM (≈ 15 µg/mL)
Compound: CC[C@H](C)[C@H](N)C(=O)N[C@@H](CC(N)=O)C(=O)N[C@@H](CCSC)C(=O)N[C@@H](CCCCN)C(=O)N[C@@H](C)C(=O)N[C@@H](CO)C(=O)N[C@@H](C)C(=O)N[C@@H](C)C(=O)N[C@H](C(=O)N[C@@H](C)C(=O)N[C@@H](CCCCN)C(=O)N[C@@H](CCCCN)C(=O)N[C@@H](CC(C)C)C(=O)N[C@@H](CC(C)C)C(=O)O)C(C)C [INMKASAAVAKKLL]

Further lines, the compound ahead of its results:

Compound: CC[C@H](C)[C@H](NC(=O)[C@H](C)N)C(=O)N[C@@H](Cc1cnc[nH]1)C(=O)N[C@@H](CCCCN)C(=O)N[C@@H](CC(C)C)C(=O)N[C@@H](C)C(=O)N[C@@H](Cc1cnc[nH]1)C(=O)N[C@@H](CCCCN)C(=O)N[C@@H](CC(C)C)C(=O)N[C@@H](CC(C)C)C(=O)N[C@@H](CCCCN)C(=O)N[C@@H](CCCCN)C(=O)N[C@@H](CC(C)C)C(=O)N[C@@H](CC(C)C)C(=O)N[C@@H](CCCN=C(N)N)C(=O)N[C@@H](C)C(=O)N[C@H](C(=O)N[C@@H](CCCCN)C(=O)N[C@@H](CCCCN)C(=O)N[C@@H](CC(C)C)C(=O)N[C@@H](C)C(=O)N[C@@H](CC(N)=O)C(=O)O)C(C)C [AIHKLAHKLLKKLLRAVKKLAN]
MIC (Staphylococcus aureus): 30 µM (≈ 75.2 µg/mL)
MIC (Pseudomonas aeruginosa): 4.5 µM (≈ 11.3 µg/mL)
MIC (Escherichia coli 55B5): 2.5 µM (≈ 6.27 µg/mL)
MIC (Escherichia coli UB1005): 3.1 µM (≈ 7.77 µg/mL)
MIC (Salmonella typhimurium): 6 µM (≈ 15 µg/mL)

Compound: CC[C@H](C)[C@H](NC(=O)[C@H](C)NC(=O)CNC(=O)[C@H](C)NC(=O)[C@H](CCCCN)NC(=O)[C@H](CO)NC(=O)[C@H](C)NC(=O)[C@H](CCSC)NC(=O)CN)C(=O)N[C@@H](C)C(=O)NCC(=O)N[C@@H](CCCCN)C(=O)N[C@H](C(=O)N[C@@H](C)C(=O)N[C@@H](CCCCN)C(=O)N[C@H](C(=O)N[C@@H](C)C(=O)N[C@@H](CC(C)C)C(=O)N[C@@H](CCCCN)C(=O)N[C@@H](C)C(=O)N[C@@H](CC(C)C)C(=O)O)C(C)C)[C@@H](C)CC [GMASKAGAIAGKIAKVALKAL]
MIC [10]: ≥ 65 µM
MIC [11]: 16.2 µM (≈ 32 µg/mL)
MIC [12]: ≥ 65 µM
MIC [2]: 0.0305 µM (≈ 0.0601 µg/mL)
MIC [13]: ≥ 65 µM
MIC [14]: ≥ 65 µM
MIC [15]: 5.08 µM (≈ 10 µg/mL)
MIC [16]: ≥ 65 µM

Compound: CC[C@H](C)[C@H](NC(=O)[C@H](Cc1ccccc1)NC(=O)CNC(=O)[C@H](CCCCN)NC(=O)CNC(=O)[C@H](C)NC(=O)[C@H](CC(N)=O)NC(=O)[C@H](CCCCN)NC(=O)[C@@H](NC(=O)[C@@H](NC(=O)[C@H](CCC(=O)O)NC(=O)[C@H](Cc1c[nH]c2ccccc12)NC(=O)[C@H](CC(C)C)NC(=O)[C@@H](N)CO)[C@@H](C)O)[C@@H](C)CC)C(=O)N[C@@H](CC(C)C)C(=O)N[C@@H](CC(N)=O)C(=O)N[C@H](C(=O)N[C@@H](CC(C)C)C(=O)N[C@@H](CC(=O)O)C(=O)N[C@@H](CCCCN)C(=O)N[C@H](C(=O)N[C@@H](CCCN=C(N)N)C(=O)N[C@H]1CSSC[C@@H](C(=O)N[C@@H](CCCCN)C(=O)N[C@H](C(=O)O)[C@@H](C)O)NC(=O)CNC(=O)CNC(=O)[C@H](C)NC(=O)[C@H](C(C)C)NC(=O)[C@H](CCCCN)NC1=O)[C@@H](C)CC)[C@@H](C)CC [SLWETIKNAGKGFILNILDKIRCKVAGGCKT]
MIC [2]: 75 µM (≈ 253 µg/mL)
MIC (Bacillus subtilis): 2.78 µM (≈ 9.37 µg/mL)
MIC [9]: 4.44 µM (≈ 15 µg/mL)
MIC (Candida glabrata 090902): ≥ 150 µM
MIC [20]: 4.7 µM (≈ 15.9 µg/mL)
MIC [21]: 2.78 µM (≈ 9.37 µg/mL)
